According to patent US20250064941A1, “SIGLEC LIGANDS, CONJUGATES, AND METHODS OF USE THEREOF” (Osprey Biopharmaceuticals, Inc., priority 2023, published 2025):

What was measured:
[1] = target: T1, mouse Siglec-2-Fc-Avi (CD22) (Mus musculus, UniProt P35329); test: SPR binding affinity to mouse CD22; details: steady-state analysis
T1 construct: made in house
T1 sequence (P35329 22-708 limits assumed): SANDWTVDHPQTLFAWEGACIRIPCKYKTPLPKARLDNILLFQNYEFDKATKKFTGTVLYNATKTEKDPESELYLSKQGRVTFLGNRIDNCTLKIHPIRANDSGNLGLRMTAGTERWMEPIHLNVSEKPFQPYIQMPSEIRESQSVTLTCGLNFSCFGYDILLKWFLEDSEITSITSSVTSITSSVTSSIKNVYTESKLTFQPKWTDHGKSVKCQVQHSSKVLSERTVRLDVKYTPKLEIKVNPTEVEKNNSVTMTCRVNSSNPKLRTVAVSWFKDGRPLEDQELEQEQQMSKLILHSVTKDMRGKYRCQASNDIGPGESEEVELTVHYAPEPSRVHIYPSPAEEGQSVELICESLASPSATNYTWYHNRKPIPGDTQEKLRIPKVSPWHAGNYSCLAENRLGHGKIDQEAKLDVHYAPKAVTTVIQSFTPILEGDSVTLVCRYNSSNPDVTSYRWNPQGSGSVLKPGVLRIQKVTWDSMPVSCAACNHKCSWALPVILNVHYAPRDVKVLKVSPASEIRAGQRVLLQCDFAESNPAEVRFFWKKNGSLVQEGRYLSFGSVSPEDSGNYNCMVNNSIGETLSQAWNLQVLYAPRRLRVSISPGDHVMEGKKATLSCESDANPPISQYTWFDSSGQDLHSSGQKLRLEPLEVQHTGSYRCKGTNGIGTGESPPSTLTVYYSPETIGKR
How it was run: (§1)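 Steady-state fits gave the affinities. Before capture on a streptavidin surface, biotinylated CD22 had native sialic acids stripped (SialoExo, 4 hours, 37° C.). Running buffer: 10 mM HEPES pH 7.5, 150 mM NaCl, 0.05% Tween-20, 1% DMSO, with DMSO solvent correction.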

[2] = target: T2, human Siglec-2/CD22 protein (Homo sapiens, UniProt P20273); test: SPR binding affinity to human CD22; details: steady-state analysis
T2 construct: purchased Acro Biosystems SI2-H82E3
T2 sequence (P20273 20-847): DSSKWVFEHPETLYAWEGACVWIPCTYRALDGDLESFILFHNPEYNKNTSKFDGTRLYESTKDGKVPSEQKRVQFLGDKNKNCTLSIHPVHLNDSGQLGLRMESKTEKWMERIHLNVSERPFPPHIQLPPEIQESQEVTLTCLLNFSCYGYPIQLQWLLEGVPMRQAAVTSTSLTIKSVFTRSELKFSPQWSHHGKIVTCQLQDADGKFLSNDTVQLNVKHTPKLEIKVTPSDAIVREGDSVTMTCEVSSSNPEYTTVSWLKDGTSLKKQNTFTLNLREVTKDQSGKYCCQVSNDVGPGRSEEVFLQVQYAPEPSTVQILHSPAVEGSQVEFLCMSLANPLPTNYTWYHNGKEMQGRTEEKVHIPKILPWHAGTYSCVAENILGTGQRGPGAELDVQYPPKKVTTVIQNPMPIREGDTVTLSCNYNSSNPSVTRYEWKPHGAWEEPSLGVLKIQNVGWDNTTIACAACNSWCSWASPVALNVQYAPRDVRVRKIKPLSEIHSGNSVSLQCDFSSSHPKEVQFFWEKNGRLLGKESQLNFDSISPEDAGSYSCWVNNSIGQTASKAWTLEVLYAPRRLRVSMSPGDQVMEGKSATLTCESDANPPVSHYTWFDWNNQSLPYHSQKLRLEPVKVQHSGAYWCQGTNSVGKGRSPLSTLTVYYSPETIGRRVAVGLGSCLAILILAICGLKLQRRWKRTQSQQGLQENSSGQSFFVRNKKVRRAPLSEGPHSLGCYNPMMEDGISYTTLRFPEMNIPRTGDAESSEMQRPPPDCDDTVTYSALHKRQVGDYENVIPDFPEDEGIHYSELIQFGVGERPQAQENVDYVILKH
How it was run: as §1

cynomolgus Siglec-2/CD22 = cynomolgus Siglec-2/CD22 (Macaca fascicularis, UniProt A0A2K5WCZ6); test: biochemical; type: binding; details: SPR, steady-state analysis; read-out: Affinity cyno CD22
cynomolgus Siglec-2/CD22, sequence (A0A2K5WCZ6 entry or part of it): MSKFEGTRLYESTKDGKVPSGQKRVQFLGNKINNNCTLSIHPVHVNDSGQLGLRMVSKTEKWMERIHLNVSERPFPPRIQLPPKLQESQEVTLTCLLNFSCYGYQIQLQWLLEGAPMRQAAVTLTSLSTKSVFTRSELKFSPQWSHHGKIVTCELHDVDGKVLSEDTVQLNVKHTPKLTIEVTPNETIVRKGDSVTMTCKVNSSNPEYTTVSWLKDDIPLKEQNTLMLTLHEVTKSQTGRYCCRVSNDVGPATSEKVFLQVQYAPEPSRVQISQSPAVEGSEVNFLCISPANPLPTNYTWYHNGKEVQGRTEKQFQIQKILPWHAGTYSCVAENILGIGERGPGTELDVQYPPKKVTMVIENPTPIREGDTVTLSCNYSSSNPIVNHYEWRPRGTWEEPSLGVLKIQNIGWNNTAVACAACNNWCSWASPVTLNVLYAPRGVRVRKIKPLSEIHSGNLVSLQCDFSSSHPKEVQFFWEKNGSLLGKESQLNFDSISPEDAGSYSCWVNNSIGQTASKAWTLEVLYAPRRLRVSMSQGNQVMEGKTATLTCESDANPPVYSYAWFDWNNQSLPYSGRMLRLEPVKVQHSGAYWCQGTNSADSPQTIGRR
How it was run: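 SPR with desialylated (SialoExo, 4 h, 37° C.) cynomolgus CD22 amine-coupled to a CM5 chip. Running buffer 10 mM HEPES, 150 mM NaCl, 0.05% Tween-20, pH 7.5, 1% DMSO, with solvent correction; 120 s dissociation. Affinities from steady-state analysis.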

Row | SMILES | Kd [1] [nM] | Kd [2] [nM] | Kd (cynomolgus Siglec-2/CD22) [nM]
1 | CC(=O)NCCOCCOCCOCCOCCNc1c(NCCOCCOCCO[C@]2(C(=O)O)C[C@H](O)[C@@H](NC(=O)CO)[C@H]([C@H](O)[C@H](O)CNC(=O)Cc3ccc(-c4ccccc4)cc3)O2)c(=O)c1=O [Cpd. 242, (2R,4S,5R,6R)-6-((1R,2R)-3-(2-([1,1′-biphenyl]-4-yl)acetamido)-1,2-dihydroxypropyl)-2-(2-(2-(2-((3,4-dioxo-2-((2-oxo-6,9,12,15-tetraoxa-3-azaheptadecan-17-yl)amino)cyclobut-1-en-1-yl)amino)ethoxy)ethoxy)ethoxy)-4-hydroxy-5-(2-hydroxyacetamido)tetrahydro-2H-pyran-2-carboxylic acid] | 1000 to 10000 | 1000 to 10000 | 1000 to 10000
2 | CC(=O)NCCOCCOCCOCCOCc1cn(CCOCCOCCO[C@]2(C(=O)O)C[C@H](O)[C@@H](NC(=O)CO)[C@H]([C@H](O)[C@H](O)CNC(=O)Cc3ccc(-c4ccccc4)cc3)O2)nn1 [Cpd. 243, (2R,4S,5R,6R)-6-((1R,2R)-3-(2-([1,1′-biphenyl]-4-yl)acetamido)-1,2-dihydroxypropyl)-4-hydroxy-5-(2-hydroxyacetamido)-2-(2-(2-(2-(4-(15-oxo-2,5,8,11-tetraoxa-14-azahexadecyl)-1H-1,2,3-triazol-1-yl)ethoxy)ethoxy)ethoxy) tetrahydro-2H-pyran-2-carboxylic acid] | 1000 to 10000 | 1000 to 10000 | 1000 to 10000
3 | CC(=O)NCCOCCOCCOCCOCCC(=O)NCCCCCCO[C@]1(C(=O)O)C[C@H](O)[C@@H](NC(=O)CO)[C@H]([C@H](O)[C@H](O)CNC(=O)Cc2ccc(Cl)cc2)O1 [Cpd. 244, (2R,4S,5R,6R)-6-((1R,2R)-3-(2-(4-chlorophenyl)acetamido)-1,2-dihydroxypropyl)-2-((2,18-dioxo-6,9,12,15-tetraoxa-3,19-diazapentacosan-25-yl)oxy)-4-hydroxy-5-(2-hydroxyacetamido) tetrahydro-2H-pyran-2-carboxylic acid] | < 1000 | < 1000 | < 1000
4 | CC(=O)NCCOCCOCCOCCOCc1cn(CCCCCCO[C@]2(C(=O)O)C[C@H](O)[C@@H](NC(=O)CO)[C@H]([C@H](O)[C@H](O)CNC(=O)Cc3ccc(Cl)cc3)O2)nn1 [Cpd. 246, (2R,4S,5R,6R)-6-((1R,2R)-3-(2-(4-chlorophenyl)acetamido)-1,2-dihydroxypropyl)-4-hydroxy-5-(2-hydroxyacetamido)-2-((6-(4-(15-oxo-2,5,8,11-tetraoxa-14-azahexadecyl)-1H-1,2,3-triazol-1-yl)hexyl)oxy) tetrahydro-2H-pyran-2-carboxylic acid] | < 1000 | < 1000 | < 1000
5 | CC(=O)NCCOCCOCCOCCOCCNc1c(NCCOCCOCCO[C@]2(C(=O)O)C[C@H](O)[C@@H](NC(=O)CO)[C@H]([C@H](O)[C@H](O)CNC(=O)Cc3ccc(Cl)cc3)O2)c(=O)c1=O [Cpd. 247, (2R,4S,5R,6R)-6-((1R,2R)-3-(2-(4-chlorophenyl)acetamido)-1,2-dihydroxypropyl)-2-(2-(2-(2-((3,4-dioxo-2-((2-oxo-6,9,12,15-tetraoxa-3-azaheptadecan-17-yl)amino)cyclobut-1-en-1-yl)amino)ethoxy)ethoxy)ethoxy)-4-hydroxy-5-(2-hydroxyacetamido) tetrahydro-2H-pyran-2-carboxylic acid] | 1000 to 10000 | 1000 to 10000 | 1000 to 10000
6 | CC(=O)NCCOCCOCCOCCOCCC(=O)NCCCCCCO[C@]1(C(=O)O)C[C@H](O)[C@@H](NC(=O)CO)[C@H]([C@H](O)[C@H](O)CNC(=O)Cc2ccc(C(F)F)cc2)O1 [Cpd. 256, (2R,4S,5R,6R)-6-((1R,2R)-3-(2-(4-(difluoromethyl)phenyl)acetamido)-1,2-dihydroxypropyl)-2-((2,18-dioxo-6,9,12,15-tetraoxa-3,19-diazapentacosan-25-yl)oxy)-4-hydroxy-5-(2-hydroxyacetamido) tetrahydro-2H-pyran-2-carboxylic acid] | 1000 to 10000 | < 1000 | < 1000
7 | CC(=O)NCCOCCOCCOCCOCCNC(=O)CCCCCCO[C@]1(C(=O)O)C[C@H](O)[C@@H](NC(=O)CO)[C@H]([C@H](O)[C@H](O)CNC(=O)Cc2ccc(C(F)F)cc2)O1 [Cpd. 257, (2R,4S,5R,6R)-6-((1R,2R)-3-(2-(4-(difluoromethyl)phenyl)acetamido)-1,2-dihydroxypropyl)-2-((2,19-dioxo-6,9,12,15-tetraoxa-3,18-diazapentacosan-25-yl)oxy)-4-hydroxy-5-(2-hydroxyacetamido)tetrahydro-2H-pyran-2-carboxylic acid] | 1000 to 10000 | < 1000 | < 1000
8 | CC(=O)NCCOCCOCCOCCOCCNc1c(NCCCCCCO[C@]2(C(=O)O)C[C@H](O)[C@@H](NC(=O)CO)[C@H]([C@H](O)[C@H](O)CNC(=O)Cc3ccc(C(F)F)cc3)O2)c(=O)c1=O [Cpd. 258, (2R,4S,5R,6R)-6-((1R,2R)-3-(2-(4-(difluoromethyl)phenyl)acetamido)-1,2-dihydroxypropyl)-2-((6-((3,4-dioxo-2-((2-oxo-6,9,12,15-tetraoxa-3-azaheptadecan-17-yl)amino)cyclobut-1-en-1-yl)amino)hexyl)oxy)-4-hydroxy-5-(2-hydroxyacetamido)tetrahydro-2H-pyran-2-carboxylic acid] | < 1000 | < 1000 | < 1000
9 | CC(=O)NCCOCCOCCOCCOCc1cn(CCOCCOCCO[C@]2(C(=O)O)C[C@H](O)[C@@H](NC(=O)CO)[C@H]([C@H](O)[C@H](O)CNC(=O)Cc3ccc(Cl)cc3)O2)nn1 [Cpd. 260, (2R,4S,5R,6R)-6-((1R,2R)-3-(2-(4-chlorophenyl)acetamido)-1,2-dihydroxypropyl)-4-hydroxy-5-(2-hydroxyacetamido)-2-(2-(2-(2-(4-(15-oxo-2,5,8,11-tetraoxa-14-azahexadecyl)-1H-1,2,3-triazol-1-yl)ethoxy)ethoxy)ethoxy)tetrahydro-2H-pyran-2-carboxylic acid] | 1000 to 10000 | 1000 to 10000 | 1000 to 10000
10 | CC(=O)NCCOCCOCCOCCOCCNc1c(NCCCCCCO[C@]2(C(=O)O)C[C@H](O)[C@@H](NC(=O)CO)[C@H]([C@H](O)[C@H](O)CNC(=O)Cc3ccc(-c4nnn[nH]4)cc3)O2)c(=O)c1=O [Cpd. 265, (2R,4S,5R,6R)-6-((1R,2R)-3-(2-(4-(1H-tetrazol-5-yl)phenyl)acetamido)-1,2-dihydroxypropyl)-2-((6-((3,4-dioxo-2-((2-oxo-6,9,12,15-tetraoxa-3-azaheptadecan-17-yl)amino)cyclobut-1-en-1-yl)amino)hexyl)oxy)-4-hydroxy-5-(2-hydroxyacetamido)tetrahydro-2H-pyran-2-carboxylic acid] | < 1000 | < 1000 | < 1000
11 | CC(=O)NCCOCCOCCOCCOCCNC(=O)CCCCCCO[C@]1(C(=O)O)C[C@H](O)[C@@H](NC(=O)CO)[C@H]([C@H](O)[C@H](O)CNC(=O)Cc2ccc(-c3nnn[nH]3)cc2)O1 [Cpd. 266, (2R,4S,5R,6R)-6-((1R,2R)-3-(2-(4-(1H-tetrazol-5-yl)phenyl)acetamido)-1,2-dihydroxypropyl)-2-((2,19-dioxo-6,9,12,15-tetraoxa-3,18-diazapentacosan-25-yl)oxy)-4-hydroxy-5-(2-hydroxyacetamido) tetrahydro-2H-pyran-2-carboxylic acid] | 1000 to 10000 | < 1000 | < 1000
